# Experimental data published in ChEMBL document CHEMBL3351537, “Design, synthesis and biological evaluation of 4-fluoropyrrolidine-2-carbonitrile and octahydrocyclopenta[b]pyrrole-2-carbonitrile derivatives as dipeptidyl peptidase IV inhibitors” (Eur J Med Chem, 2014).
# Activity calls are given as the source filed them. The rule behind the calls is not given here.
# What was measured:
# Prolyl endopeptidase FAP = target: T1, Prolyl endopeptidase FAP (Homo sapiens, UniProt Q12884); assay: Inhibition of FAP (unknown origin) expressed in baculovirus expression system using Nle-Pro-AMC as substrate by continuous fluorometric assay
# T1 sequence (Q12884 whole entry): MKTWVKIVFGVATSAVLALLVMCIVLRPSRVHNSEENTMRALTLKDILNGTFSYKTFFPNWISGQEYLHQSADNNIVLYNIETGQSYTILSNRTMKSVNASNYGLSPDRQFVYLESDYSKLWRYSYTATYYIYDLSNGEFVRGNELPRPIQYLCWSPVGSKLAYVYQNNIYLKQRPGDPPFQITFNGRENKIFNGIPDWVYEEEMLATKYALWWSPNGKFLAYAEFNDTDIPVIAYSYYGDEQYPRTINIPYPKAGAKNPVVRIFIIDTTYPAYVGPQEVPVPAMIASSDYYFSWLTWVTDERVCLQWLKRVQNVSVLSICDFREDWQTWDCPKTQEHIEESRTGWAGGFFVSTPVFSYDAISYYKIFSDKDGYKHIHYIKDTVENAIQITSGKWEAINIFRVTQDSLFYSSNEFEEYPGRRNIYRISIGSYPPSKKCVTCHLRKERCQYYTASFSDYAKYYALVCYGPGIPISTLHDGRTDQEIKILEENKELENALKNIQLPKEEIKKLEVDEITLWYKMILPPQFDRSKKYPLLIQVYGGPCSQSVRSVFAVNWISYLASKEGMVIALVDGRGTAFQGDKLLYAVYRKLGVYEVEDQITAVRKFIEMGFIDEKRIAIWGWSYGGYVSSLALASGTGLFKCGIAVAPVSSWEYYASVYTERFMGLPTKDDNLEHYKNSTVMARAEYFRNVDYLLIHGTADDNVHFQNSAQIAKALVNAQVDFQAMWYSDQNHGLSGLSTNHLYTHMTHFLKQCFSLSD
# Dipeptidyl peptidase 2 = Dipeptidyl peptidase 2 (Homo sapiens, UniProt Q9UHL4); assay: Inhibition of DPP7 (unknown origin) expressed in baculovirus expression system using Nle-Pro-AMC as substrate by continuous fluorometric assay
# Dipeptidyl peptidase 8 = Dipeptidyl peptidase 8 (Homo sapiens, UniProt Q6V1X1); assay: Inhibition of DPP8 (unknown origin) expressed in baculovirus expression system using Ala-Pro-AMC as substrate by continuous fluorometric assay
# Dipeptidyl peptidase 8, sequence (Q6V1X1 whole entry): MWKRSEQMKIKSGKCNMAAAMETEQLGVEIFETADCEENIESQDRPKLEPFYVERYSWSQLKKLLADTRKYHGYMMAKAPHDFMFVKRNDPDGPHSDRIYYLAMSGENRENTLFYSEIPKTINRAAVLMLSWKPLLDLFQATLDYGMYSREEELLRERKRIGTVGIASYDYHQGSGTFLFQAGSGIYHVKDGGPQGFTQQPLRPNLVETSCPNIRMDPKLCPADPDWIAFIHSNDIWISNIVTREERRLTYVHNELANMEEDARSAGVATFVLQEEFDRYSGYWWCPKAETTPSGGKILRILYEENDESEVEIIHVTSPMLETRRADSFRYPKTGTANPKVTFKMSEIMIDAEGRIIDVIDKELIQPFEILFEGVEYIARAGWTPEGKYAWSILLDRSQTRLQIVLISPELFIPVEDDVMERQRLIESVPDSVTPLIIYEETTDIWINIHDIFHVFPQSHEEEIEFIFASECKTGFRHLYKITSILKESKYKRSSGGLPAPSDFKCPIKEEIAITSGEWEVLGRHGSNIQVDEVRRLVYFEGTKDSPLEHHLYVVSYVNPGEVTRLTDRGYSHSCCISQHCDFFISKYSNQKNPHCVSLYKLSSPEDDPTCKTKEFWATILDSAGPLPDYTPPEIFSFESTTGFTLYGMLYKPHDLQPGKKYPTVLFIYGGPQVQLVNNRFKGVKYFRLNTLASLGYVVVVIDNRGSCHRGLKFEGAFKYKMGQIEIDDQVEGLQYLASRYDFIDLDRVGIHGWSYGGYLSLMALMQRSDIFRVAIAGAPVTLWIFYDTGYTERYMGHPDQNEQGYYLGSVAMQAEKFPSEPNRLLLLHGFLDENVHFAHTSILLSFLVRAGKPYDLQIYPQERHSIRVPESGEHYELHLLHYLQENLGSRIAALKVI
# Dipeptidyl peptidase 9 = Dipeptidyl peptidase 9 (Homo sapiens, UniProt Q86TI2); assay: Inhibition of DPP9 (unknown origin) expressed in baculovirus expression system using Ala-Pro-AMC as substrate by continuous fluorometric assay
# Dipeptidyl peptidase 9, sequence (Q86TI2 whole entry): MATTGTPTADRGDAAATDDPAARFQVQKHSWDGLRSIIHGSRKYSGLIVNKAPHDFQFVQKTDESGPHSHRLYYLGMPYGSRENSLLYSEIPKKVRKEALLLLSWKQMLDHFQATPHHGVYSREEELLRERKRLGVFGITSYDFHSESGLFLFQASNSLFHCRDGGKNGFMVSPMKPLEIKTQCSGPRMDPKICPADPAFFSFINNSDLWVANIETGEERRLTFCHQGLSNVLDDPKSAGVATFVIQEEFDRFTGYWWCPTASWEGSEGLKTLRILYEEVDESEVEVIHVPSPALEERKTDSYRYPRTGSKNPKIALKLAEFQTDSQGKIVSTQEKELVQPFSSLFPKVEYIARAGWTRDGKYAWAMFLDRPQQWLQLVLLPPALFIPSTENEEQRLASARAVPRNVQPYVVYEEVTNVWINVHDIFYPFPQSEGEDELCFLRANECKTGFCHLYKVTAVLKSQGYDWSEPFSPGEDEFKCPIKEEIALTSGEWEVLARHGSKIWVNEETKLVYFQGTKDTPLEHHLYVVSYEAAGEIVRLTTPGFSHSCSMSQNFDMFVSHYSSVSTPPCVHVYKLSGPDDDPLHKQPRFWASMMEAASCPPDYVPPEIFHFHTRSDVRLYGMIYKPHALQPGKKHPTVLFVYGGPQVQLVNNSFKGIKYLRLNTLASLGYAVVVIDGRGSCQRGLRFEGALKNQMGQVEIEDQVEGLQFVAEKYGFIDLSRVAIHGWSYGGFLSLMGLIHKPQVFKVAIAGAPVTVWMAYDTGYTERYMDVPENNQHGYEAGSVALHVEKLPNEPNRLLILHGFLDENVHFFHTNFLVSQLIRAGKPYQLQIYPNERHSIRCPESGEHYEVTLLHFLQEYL
# Dipeptidyl peptidase 4 = Dipeptidyl peptidase 4 (Homo sapiens, UniProt P27487); assay: Inhibition of human recombinant DPP4 expressed in baculovirus expression system using Ala-Pro-AMC as substrate by continuous fluorometric assay
# Dipeptidyl peptidase 4, sequence (P27487 whole entry): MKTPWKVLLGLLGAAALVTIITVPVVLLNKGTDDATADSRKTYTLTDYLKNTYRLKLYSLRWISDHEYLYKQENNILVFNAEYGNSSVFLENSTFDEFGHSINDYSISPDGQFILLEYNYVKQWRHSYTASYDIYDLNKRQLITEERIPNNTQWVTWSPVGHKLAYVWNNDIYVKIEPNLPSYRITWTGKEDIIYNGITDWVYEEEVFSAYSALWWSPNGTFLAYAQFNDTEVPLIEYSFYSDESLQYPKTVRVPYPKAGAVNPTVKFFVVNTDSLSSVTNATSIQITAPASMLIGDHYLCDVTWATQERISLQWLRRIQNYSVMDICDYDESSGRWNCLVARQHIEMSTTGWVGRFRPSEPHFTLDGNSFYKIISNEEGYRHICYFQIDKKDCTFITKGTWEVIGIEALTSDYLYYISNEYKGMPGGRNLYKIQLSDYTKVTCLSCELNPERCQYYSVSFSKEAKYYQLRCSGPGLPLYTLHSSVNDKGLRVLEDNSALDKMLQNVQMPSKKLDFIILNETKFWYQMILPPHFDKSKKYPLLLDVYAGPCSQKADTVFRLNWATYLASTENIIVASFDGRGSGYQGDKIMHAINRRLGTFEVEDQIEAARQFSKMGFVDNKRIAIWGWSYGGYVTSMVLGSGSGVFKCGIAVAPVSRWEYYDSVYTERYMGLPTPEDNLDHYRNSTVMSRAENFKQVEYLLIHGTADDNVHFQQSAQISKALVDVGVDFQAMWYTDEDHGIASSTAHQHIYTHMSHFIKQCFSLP
# Mus musculus [1] = assay: Reduction in total cholesterol content in C57BKS db/db mouse at 15 mg/kg/day, po; format: functional, organism-based
# Mus musculus [2] = assay: Reduction in free fatty acid in C57BKS db/db mouse at 15 mg/kg/day, po (reference value: 1.46 +/- 0.10 mM); format: functional
# Mus musculus [3] = assay: Reduction in random blood glucose level in C57BKS db/db mouse at 15 mg/kg/day, po (Rvb =23.3 +/- 1.0 mM); format: functional
# Mus musculus [4] = assay: Reduction in fasting blood glucose level in C57BKS db/db mouse at 15 mg/kg/day, po (Rvb =23.0 +/- 1.0 mM); format: functional
# Mus musculus [5] = assay: Reduction in plasma triglyceride content in C57BKS db/db mouse at 15 mg/kg/day, po (reference value: 1.01 +/- 0.09 mM); format: functional
structure (smiles),measurement,setting,value
Cc1ccccc1C[C@@H](N)CC(=O)N1[C@H](C#N)C[C@@H]2CCC[C@@H]21,IC50,Prolyl endopeptidase FAP; read-out: IC50,110 µM
same,IC50,Dipeptidyl peptidase 2,Not Active
N#C[C@@H]1C[C@H](F)CN1C(=O)C[C@H](N)Cc1ccc(F)cc1,IC50,Dipeptidyl peptidase 2; read-out: IC50,193 µM
N#C[C@@H]1C[C@@H]2CCC[C@@H]2N1C(=O)C[C@H](N)Cc1ccccc1,IC50,Prolyl endopeptidase FAP,Not Active
same,IC50,Dipeptidyl peptidase 2,Not Active
same,IC50,Dipeptidyl peptidase 8,Not Active
same,IC50,Dipeptidyl peptidase 9,108 µM
COc1ccc(C[C@@H](N)CC(=O)N2[C@H](C#N)C[C@@H]3CCC[C@@H]32)cc1,IC50,Dipeptidyl peptidase 4,Not Active
N#C[C@@H]1C[C@@H]2CCC[C@@H]2N1C(=O)C[C@H](N)Cc1ccc(F)cc1,IC50,Prolyl endopeptidase FAP; read-out: IC50,154 µM
N#C[C@@H]1C[C@H](F)CN1C(=O)C[C@H](N)Cc1ccc(Cl)c(Cl)c1,IC50,Dipeptidyl peptidase 9,0.23 µM
N#C[C@@H]1CCCN1C(=O)CNC12CC3CC(CC(O)(C3)C1)C2 [VILDAGLIPTIN],Activity,Mus musculus [1],inactive
same,Activity,Mus musculus [2],1.07 mEq/L
same,Activity,Mus musculus [3],22.2 mM
same,Activity,Mus musculus [4],18.5 mM
same,Activity,Mus musculus [5],0.75 mM
